Measurements reported in PubChem BioAssay (NCI).
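Dose response: 5 concentrations. Exposure: 48 h. Format: 96-well plates. Endpoint: linear interpolation; highest concentration if not reached. GI50: concentration for 50% inhibition of growth. TGI marks complete inhibition of growth.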

Experiments:
Test in all cases: growth of human tumour cells (NCI), 48 h
786-0 renal = test system: 786-0 renal
ACHN renal = test system: ACHN renal
HCC-2998 colon = test system: HCC-2998 colon
KM12 colon = test system: KM12 colon
OVCAR-4 ovarian = test system: OVCAR-4 ovarian
OVCAR-5 ovarian = test system: OVCAR-5 ovarian
SW-620 colon = test system: SW-620 colon
UACC-62 melanoma = test system: UACC-62 melanoma
UO-31 renal = test system: UO-31 renal
T-47D breast = test system: T-47D breast

SMILES | TGI (786-0 renal) [µM] | TGI (ACHN renal) [µM] | TGI (HCC-2998 colon) [µM] | TGI (KM12 colon) [µM] | TGI (OVCAR-4 ovarian) [µM] | TGI (OVCAR-5 ovarian) [µM] | TGI (SW-620 colon) [µM] | TGI (UACC-62 melanoma) [µM] | TGI (UO-31 renal) [µM] | TGI (T-47D breast) [µM] | GI50 (786-0 renal) [µM] | GI50 (ACHN renal) [µM] | GI50 (KM12 colon) [µM] | GI50 (SW-620 colon) [µM] | GI50 (UACC-62 melanoma) [µM] | GI50 (UO-31 renal) [µM] | GI50 (HCC-2998 colon) [µM] | GI50 (OVCAR-4 ovarian) [µM] | GI50 (OVCAR-5 ovarian) [µM]
O=C(O)c1ccc([N+](=O)[O-])c2c(=O)c3ccccc3[nH]c12 | > 100 | > 100 | > 100 | > 100 | > 100 | > 100 | > 100 | > 100 | > 100 |  |  |  |  |  |  |  |  |  | 
CCCN(CCC)C(=O)Cc1c2n(c3ccccc13)Cc1ccccc1-2 | > 100 | > 100 | > 100 | > 100 | > 100 |  | > 100 | > 100 | > 100 |  |  |  |  |  |  |  |  |  | 
CCOC(=O)C#Cc1ccc(C#CC(=O)OCC)cc1 | > 27.9 | > 21.3 |  | > 21.2 |  | > 21.8 | > 27.4 | > 23.4 |  | > 100 |  |  |  |  |  |  |  |  | 
O=C(Nc1nccs1)c1cc(C2=CC=CC([N+](=O)[O-])C=C2)nc(=S)[nH]1 (stereo unspecified) | > 100 | > 100 | > 100 | > 100 |  | > 100 | > 100 | > 100 | > 100 |  |  |  |  |  |  |  |  |  | 
Cc1nn2c(/C=C3/C(=O)Nc4ccccc43)c(-c3ccc(Cl)cc3)nc2s1 | 24.2 | 20 |  | > 50 |  |  | > 50 | 21.4 | > 50 |  | 9.95 | 9.86 | 16.5 | > 50 | 10.2 | > 50 |  |  | 
CCCC(=O)N[C@@H](Cc1cc(I)c(O)c(I)c1)C(=O)NCCCNCCCCNCCCNC(=O)[C@@H](N)CCCN=C(N)N | > 100 | > 100 | > 100 | > 100 |  |  | > 100 | > 100 | > 100 |  |  |  |  |  |  |  |  |  | 
COc1ccc(C(=O)/C=C/c2cc(C(=O)c3cc(OC)c(OC)c(OC)c3)ccc2OC)cc1 | > 100 | > 100 |  |  |  |  | > 100 |  |  |  | 7.71 | 3.19 |  | 3.07 |  |  |  |  | 
COc1ccc2nc(NC(=O)C(=O)CC(=O)c3ccc(Cl)cc3)sc2c1 | > 100 | > 100 | > 100 | > 100 | 53.2 |  | > 100 | > 100 | > 100 |  |  |  |  |  |  |  |  |  | 
CCOC(=O)[C@@H](C)C[C@H](Cc1ccccc1)NC(=O)c1csc([C@@H](C[C@H](C(C)C)N(C)C(=O)[C@H](CCC(C)C)NC(=O)[C@H]2CCCCN2C)OC(C)=O)n1 | 5.53 |  | 4.28 | 4.81 | > 33.3 | 10.3 | 7.14 | 6.92 | 5.14 |  | 0.0135 |  | < 0.00333 | < 0.00333 | < 0.00333 | 0.0227 | < 0.00333 | 0.497 | 0.0115
COC1=C(C(=O)OC(C)(C)C)[C@]2(C)C(C(=O)OC(C)(C)C)C(OC)=C(C(=O)OC(C)(C)C)[C@]2(C)C1C(=O)OC(C)(C)C (stereo partly specified) | > 100 | > 100 | > 100 | > 100 | > 100 | > 100 | > 100 | > 100 | > 100 |  |  |  |  |  |  |  |  |  | 
COc1ccc(C=NC23CC4CC(CC(C4)C2)C3)cc1 | > 100 | > 100 | > 100 | > 100 | > 100 | > 100 | > 100 | > 100 | > 100 |  |  |  |  |  |  |  |  |  | 
Cc1cccc(C)c1NC(=O)C(=O)CC(=O)CO | > 100 | > 100 | > 100 | > 100 | > 100 | > 100 | > 100 | > 100 | > 100 |  |  |  |  |  |  |  |  |  | 
CCN(CC)C(=S)N/N=C(\C)c1ccccc1O | > 100 | 61.4 | > 100 | > 100 | > 100 |  | > 100 | > 100 | 61.9 |  |  |  |  |  |  |  |  |  | 
COc1ccc(/C=C(\C#N)c2cc(OC)c3c(c2)OCO3)cc1 | 17.2 | 67.7 | 1.41 | 1.66 | > 66.6 | 80.9 | > 100 | > 100 | > 55.8 |  | < 0.0215 | 0.0449 | < 0.01 | < 0.01 | < 0.01 | 0.251 | 0.0264 | 0.0617 | 0.0797
CC(=S)NNC(=O)c1ccncc1 | > 100 | > 100 | > 100 | > 100 | > 100 | > 100 | > 100 | > 100 | > 100 |  |  |  |  |  |  |  |  |  | 
Clc1cc(Cl)cc(N2N=C(c3cccc(Nc4ccncc4)c3)CC2c2ccc(Br)cc2)c1 (stereo unspecified) | 3.32 | 3.02 | 3.2 | 3.18 | 2.96 | 2.92 | 3.04 | 3.13 | 2.69 |  | 1.74 | 1.66 | 1.69 | 1.61 | 1.68 | 1.39 | 1.77 | 1.6 | 1.55
